Laboratory results reported in article PMC10030462, “SB2301-mediated perturbation of membrane composition in lipid droplets induces lipophagy and lipid droplets ubiquitination” (Communications Biology, 2023).
pKd: −log10 of the molar value.

Assays:
[1] = test system: HeLa human cervical cancer cells; assay: cells; parameters: cellular lipid droplet reduction, fluorescence imaging high-content phenotypic screen; settings: 24 h, lipid droplet reduction in HeLa; for IC50: read-out: LD reduction (IC50, uM) Potency
Method: The LD reduction activity of these analogues (1–20) was initially evaluated in human cervical cancer HeLa cells at a fixed concentration (10 μM each) to determine the efficacy of LD reduction. In addition, potency was determined by measuring the half-maximal inhibitory concentration (IC50) (Supplementary Table 1). Compounds with high cytotoxicity and low water solubility were excluded during high-content phenotypic screening. […] We also observed a similar pattern of LD reduction in human hepatocellular carcinoma HepG2 cells (Supplementary Fig. 2A) and mouse hepatocyte AML12 cells (Supplementary Fig. 2B). Consistent with the reduction in cellular LDs, the cellular triglyceride (TG) content was reduced in a dose-dependent manner (Fig. 1E). Based on these findings, we conducted a further study to determine the mechanism by which SB2301 reduced cellular LDs.

[2] = target: T1, PCYT2 (ethanolamine-phosphate cytidylyltransferase 2) (Homo sapiens, UniProt Q99447); assay: SPR (Biacore T100, immobilized human PCYT2, […] fit); also CETSA and TS-FITGE in HepG2 cells; type: binding
T1 construct: Human PCYT2 (Prospec, enz-221)
T1 sequence (Q99447 whole entry): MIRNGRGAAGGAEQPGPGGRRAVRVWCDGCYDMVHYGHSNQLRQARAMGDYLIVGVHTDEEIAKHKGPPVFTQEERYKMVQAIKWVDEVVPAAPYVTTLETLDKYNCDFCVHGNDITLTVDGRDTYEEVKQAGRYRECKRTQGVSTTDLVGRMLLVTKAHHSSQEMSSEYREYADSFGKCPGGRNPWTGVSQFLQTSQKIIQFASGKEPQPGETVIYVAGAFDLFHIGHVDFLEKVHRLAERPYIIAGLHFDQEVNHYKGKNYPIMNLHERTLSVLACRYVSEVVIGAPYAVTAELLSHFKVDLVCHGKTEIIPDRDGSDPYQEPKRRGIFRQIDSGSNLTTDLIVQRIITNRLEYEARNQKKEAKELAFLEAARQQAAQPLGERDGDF

Oc1cccc(-c2ccc3nc(-c4cn(-c5ccccc5O)nn4)ccc3c2)c1 [compound 13, 13] gave an inhibition at 10 µM [1] of 12.7% and an IC50 [1] of 11.6 µM.
For Oc1cccc(-c2ccc3nc(-c4cn(-c5ccc(Br)cc5)nn4)ccc3c2)c1 [compound 12, 12], the inhibition at 10 µM [1] was 36.8% and the IC50 [1] was 4.7 µM.
For Oc1cccc(-c2ccc3nc(-c4cn(-c5ccccc5C(F)(F)F)nn4)ccc3c2)c1 [compound 4, SB2301], the pKd [2] was roughly 4.59, the inhibition at 10 µM [1] was 64.5% and the IC50 [1] was 4.4 µM.
With N#Cc1ccccc1-n1cc(-c2ccc3cc(-c4cccc(O)c4)ccc3n2)nn1 [compound 7, 7] the inhibition at 10 µM [1] was 30.4% and the IC50 [1] was 14.8 µM.
Oc1cccc(-c2ccc3nc(-c4cn(-c5ccccc5Cl)nn4)ccc3c2)c1 [compound 10, 10] showed an inhibition at 10 µM [1] of 2.7% and an IC50 [1] of 10.1 µM.
N#Cc1cccc(-n2cc(-c3ccc4cc(-c5cccc(O)c5)ccc4n3)nn2)c1 [compound 8, 8] gave an inhibition at 10 µM [1] of -7.1% and an IC50 [1] of 27.6 µM.
In the case of O=[N+]([O-])c1ccccc1-n1cc(-c2ccc3cc(-c4cccc(O)c4)ccc3n2)nn1 [compound 14, 14], the inhibition at 10 µM [1] was 48.5% and the IC50 [1] was 7.9 µM.
Oc1cccc(-c2ccc3nc(-c4cn(-c5ccc(C(F)(F)F)cc5)nn4)ccc3c2)c1 [compound 6, 6] gave an inhibition at 10 µM [1] of 35.9% and an IC50 [1] of 32 µM.
Oc1cccc(-c2ccc3nc(-c4cn(-c5cccc(F)c5)nn4)ccc3c2)c1 [compound 11, 11] showed an inhibition at 10 µM [1] of 19.2% and an IC50 [1] of 20.6 µM.
COc1ccccc1-n1cc(-c2ccc3cc(-c4cccc(O)c4)ccc3n2)nn1 [compound 1, 1] gave an inhibition at 10 µM [1] of 50% and an IC50 [1] of 6.7 µM.
Compound COc1ccc(-n2cc(-c3ccc4cc(-c5cccc(O)c5)ccc4n3)nn2)cc1 [compound 3, 3] has an inhibition at 10 µM [1] of 19% and an IC50 [1] of 3.7 µM.
